# System: AIM+ and AIM− CD4+ T cells from peptide-expanded PBMCs
# Assay: TCRβ CDR3 sequencing (immunoSEQ) of sorted AIM+ and AIM− CD4+ T cells;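 note: genomic DNA from sorted cells as template, amplification bias-controlled two-step multiplex PCR, APOB6 pool at 10 µg/ml per peptide, CD40 blocking antibody added before restimulation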
# Assay type: cell-based, human
# Conditions: for Log10 Odds Ratio: AIM+ vs AIM−; for No. of clone-specific productive templates, AIM+ CD4+ T (Total 18591) / No. of clone-specific productive templates, AIM− CD4+ T (Total 7206) / No. of clone-specific productive templates, AIM+ CD4+ T (Total 16700) / No. of clone-specific productive templates, AIM− CD4+ T (Total 21770) / No. of clone-specific productive templates, AIM+ CD4+ T (Total 31354) / No. of clone-specific productive templates, AIM− CD4+ T (Total 48987) / No. of clone-specific productive templates, AIM+ CD4+ T (Total 21697) / No. of clone-specific productive templates, AIM− CD4+ T (Total 49956) / No. of clone-specific productive templates, AIM+ CD4+ T (Total 34927) / No. of clone-specific productive templates, AIM− CD4+ T (Total 45364) / No. of clone-specific productive templates, AIM+ CD4+ T (Total 25796) / No. of clone-specific productive templates, AIM− CD4+ T (Total 25928): PBMCs expanded 14 days and restimulated 24 h with APOB6
# Method: To examine the clonotypic identities of autoreactive CD4^+ T cells, the hypervariable TCRβ DR3 region was sequenced using a DNA-based sequencing technique^42 (Adaptive Biotechnologies), which have been used to profile clonal populations of other self-antigen specific T cells^43. PBMCs from six HLA-typed donors (demographics and HLA-II alleles in Tables 5, 6) were expanded (14-days) and restimulated (24 h) with the APOB6 pool. To isolate viable responder and non-responder CD4^+ T cells from the same pool of stimulated PBMCs (schematic in FIG. 15A, gating strategy in FIG. 151B), the inventors used the AIM assay protocol (FIGS. 2A to 2D).
# As a second control, unexpanded PBMCs (day 0 samples), sorted into naïve, central memory (TCM) and effector memory (TEM) CD4^+ T cells, were used (gating strategy in FIG. 15C). This allowed tracing the APOB6-specific AIM^+ T cell clones in naïve and memory T cell lineages. Genomic DNA, isolated from sorted AIM^− and AIM^+ Day 14 samples and naïve, TCM and TEM Day 0 samples from six donors, was used as the starting material for TCRVβ sequencing (schematic in FIG. 15A) using an optimized two-step, amplification bias-controlled multiplex-PCR-based approach^42,44 (immunoSEQ Human TCRB Assay, Adaptive Biotechnologies).
# For isolation of APOB epitope-specific CD4^+ T cells, PBMCs were expanded with the APOB6pool (10 μg/ml per peptide). On Day 14, cultured cells were washed and re-stimulated with APOB6 (10 μg/ml) for 24 h (AIM assay protocol). 1 μg/ml of CD40 blocking antibody was added 15 min before stimulation. At the end of the stimulation period, cells were washed with FACS buffer (PBS w/o Ca/Mg, 2% FCS). Day 14 (APOB6 expanded and restimulated) and Day 0 (ex vivo samples with no in vitro stimulation) PBMC samples from six donors were resuspended in a staining master mix containing anti-human Fc-Block (Biolegend), fixable viability dye and antibodies against T cell and non-T cell (Dump) surface markers, activation markers and memory markers (antibody details in Table 4). Viability dye was used at 1:1000 dilution, antibodies were used at a final dilution of 1:100 (activation markers) and 1:200 (other extracellular markers). […] Gates were set based on unstimulated and PHA-L stimulated negative and positive controls, respectively. Antigen-specific AIM^+ and non-specific control AIM^− CD4^+ T cells from Day 14 samples and naïve (CD45RA^+CCR7^+), central memory (CD45RA^−CCR7^+, TCM) and effector memory (CD45RA^−CCR7^−, TEM) CD4^+ T cells from Day 0 PBMCs were sorted into HEPES-containing buffer (PBS with 2% FBS and 0.025 M HEPES) using BD FACSAria flow cytometry sorters. Acquired data was analyzed with FlowJo software.
# Genomic DNA was extracted from sorted cells using QIAamp DNA Micro Kit (QIAGEN) and sent to Adaptive Biotechnologies for survey-level TCRβ sequencing (depth ˜60,000 reads) using their established immunoSEQ platform^7. Briefly, highly variable CDR3 regions on somatically rearranged human TCRβ chains were amplified with a two-step multiplex PCR approach using optimized set of primers that target the VDJ region spanning each unique CDR3B. A synthetic repertoire containing all possible V/J templates is used as a built-in control to quantify and correct PCR amplification biases. Processing of raw Illumina sequence reads, filtering, demultiplexing, clustering and mapping of CDR3 sequences and annotation of VDJ genes using IMGT database sequences were performed at Adaptive Biotechnologies and made available for download and analysis.
substance,measurement,setting,value
"CASSWDRTKFGNQPQHF: TCRβ CDR3 clone, TCRBV19-01+TCRBJ01-05, Donor 2",Log10 Odds Ratio,Donor 2,2.02
same,"No. of clone-specific productive templates, AIM+ CD4+ T (Total 18591)",Donor 2,268
same,"No. of clone-specific productive templates, AIM− CD4+ T (Total 7206)",Donor 2,1
"CASSLPRDRDYGYTF: TCRβ CDR3 clone, TCRBV06-02+TCRBJ01-02, Donor 3",Log10 Odds Ratio,Donor 3,2.55
same,"No. of clone-specific productive templates, AIM+ CD4+ T (Total 16700)",Donor 3,269
same,"No. of clone-specific productive templates, AIM− CD4+ T (Total 21770)",Donor 3,1
"CATSDFGKEGDEKLFF: TCRβ CDR3 clone, TCRBV24-01+TCRBJ01-04, Donor 5",Log10 Odds Ratio,Donor 5,2.61
same,"No. of clone-specific productive templates, AIM+ CD4+ T (Total 31354)",Donor 5,518
same,"No. of clone-specific productive templates, AIM− CD4+ T (Total 48987)",Donor 5,2
"CASRTIGQGSFNYGYTF: TCRβ CDR3 clone, TCRBV27-01+TCRBJ01-02, Donor 1",Log10 Odds Ratio,Donor 1,2.78
same,"No. of clone-specific productive templates, AIM+ CD4+ T (Total 21697)",Donor 1,257
same,"No. of clone-specific productive templates, AIM− CD4+ T (Total 49956)",Donor 1,1
"CSASRTYDNQPQHF: TCRβ CDR3 clone, TCRBV20-01+TCRBJ01-05, Donor 2",Log10 Odds Ratio,Donor 2,11.96
same,"No. of clone-specific productive templates, AIM+ CD4+ T (Total 18591)",Donor 2,326
same,"No. of clone-specific productive templates, AIM− CD4+ T (Total 7206)",Donor 2,0
"CATALAGGHEQYF: TCRβ CDR3 clone, TCRBV06-05+TCRBJ02-07, Donor 5",Log10 Odds Ratio,Donor 5,2.60
same,"No. of clone-specific productive templates, AIM+ CD4+ T (Total 31354)",Donor 5,753
same,"No. of clone-specific productive templates, AIM− CD4+ T (Total 48987)",Donor 5,3
"CASRETGGAGELFF: TCRβ CDR3 clone, TCRBV06-05+TCRBJ02-02, Donor 6",Log10 Odds Ratio,Donor 6,2.71
same,"No. of clone-specific productive templates, AIM+ CD4+ T (Total 34927)",Donor 6,393
same,"No. of clone-specific productive templates, AIM− CD4+ T (Total 45364)",Donor 6,1
"CASSLERGAYGYTF: TCRβ CDR3 clone, TCRBV07-02+TCRBJ01-02, Donor 6",Log10 Odds Ratio,Donor 6,2.81
same,"No. of clone-specific productive templates, AIM+ CD4+ T (Total 34927)",Donor 6,963
same,"No. of clone-specific productive templates, AIM− CD4+ T (Total 45364)",Donor 6,2
"CASSLAGTGTNEQFF: TCRβ CDR3 clone, TCRBV05-01+TCRBJ02-01, Donor 1",Log10 Odds Ratio,Donor 1,2.97
same,"No. of clone-specific productive templates, AIM+ CD4+ T (Total 21697)",Donor 1,396
same,"No. of clone-specific productive templates, AIM− CD4+ T (Total 49956)",Donor 1,1
"CASSLTRIPEQYF: TCRβ CDR3 clone, TCRBV28-01+TCRBJ02-07, Donor 1",Log10 Odds Ratio,Donor 1,0.90
same,"No. of clone-specific productive templates, AIM+ CD4+ T (Total 21697)",Donor 1,459
same,"No. of clone-specific productive templates, AIM− CD4+ T (Total 49956)",Donor 1,136
"CASSYSSGGGNEQFF: TCRβ CDR3 clone, TCRBV06-05+TCRBJ02-01, Donor 1",Log10 Odds Ratio,Donor 1,2.61
same,"No. of clone-specific productive templates, AIM+ CD4+ T (Total 21697)",Donor 1,348
same,"No. of clone-specific productive templates, AIM− CD4+ T (Total 49956)",Donor 1,2
"CASSLRTGIINEQFF: TCRβ CDR3 clone, TCRBV05-01+TCRBJ02-01, Donor 5",Log10 Odds Ratio,Donor 5,11.77
same,"No. of clone-specific productive templates, AIM+ CD4+ T (Total 31354)",Donor 5,383
same,"No. of clone-specific productive templates, AIM− CD4+ T (Total 48987)",Donor 5,0
"CATSEGGRGRGPGELFF: TCRβ CDR3 clone, TCRBV24-01+TCRBJ02-02, Donor 6",Log10 Odds Ratio,Donor 6,2.58
same,"No. of clone-specific productive templates, AIM+ CD4+ T (Total 34927)",Donor 6,292
same,"No. of clone-specific productive templates, AIM− CD4+ T (Total 45364)",Donor 6,1
"CASSPADREETQYF: TCRβ CDR3 clone, TCRBV18-01+TCRBJ02-05, Donor 3",Log10 Odds Ratio,Donor 3,0.99
same,"No. of clone-specific productive templates, AIM+ CD4+ T (Total 16700)",Donor 3,410
same,"No. of clone-specific productive templates, AIM− CD4+ T (Total 21770)",Donor 3,56
"CASSELGLNTDTQYF: TCRβ CDR3 clone, TCRBV06-01+TCRBJ02-03, Donor 4",Log10 Odds Ratio,Donor 4,1.11
same,"No. of clone-specific productive templates, AIM+ CD4+ T (Total 25796)",Donor 4,2236
same,"No. of clone-specific productive templates, AIM− CD4+ T (Total 25928)",Donor 4,190
"CASSLYAGQNTEAFF: TCRβ CDR3 clone, TCRBV07-02+TCRBJ01-01, Donor 6",Log10 Odds Ratio,Donor 6,2.35
same,"No. of clone-specific productive templates, AIM+ CD4+ T (Total 34927)",Donor 6,344
same,"No. of clone-specific productive templates, AIM− CD4+ T (Total 45364)",Donor 6,2
"CASSISLALIYEQYF: TCRβ CDR3 clone, TCRBV19-01+TCRBJ02-07, Donor 6",Log10 Odds Ratio,Donor 6,2.09
same,"No. of clone-specific productive templates, AIM+ CD4+ T (Total 34927)",Donor 6,371
same,"No. of clone-specific productive templates, AIM− CD4+ T (Total 45364)",Donor 6,4
"CSAREPHDTSTDTQYF: TCRβ CDR3 clone, TCRBV20-X+TCRBJ02-03, Donor 2",Log10 Odds Ratio,Donor 2,11.98
same,"No. of clone-specific productive templates, AIM+ CD4+ T (Total 18591)",Donor 2,338
same,"No. of clone-specific productive templates, AIM− CD4+ T (Total 7206)",Donor 2,0
"CATSEPGPLNQPQHF: TCRβ CDR3 clone, TCRBV24-01+TCRBJ01-05, Donor 3",Log10 Odds Ratio,Donor 3,1.62
same,"No. of clone-specific productive templates, AIM+ CD4+ T (Total 16700)",Donor 3,348
same,"No. of clone-specific productive templates, AIM− CD4+ T (Total 21770)",Donor 3,11
"CASSELGTRPNEQFF: TCRβ CDR3 clone, TCRBV10-01+TCRBJ02-01, Donor 4",Log10 Odds Ratio,Donor 4,2.76
same,"No. of clone-specific productive templates, AIM+ CD4+ T (Total 25796)",Donor 4,558
same,"No. of clone-specific productive templates, AIM− CD4+ T (Total 25928)",Donor 4,1

# From US20260000710A1, “Novel Treatments for Cardiovascular Related Disease” (priority 2022, published 2026)
